The values that follow come from patent publication US8563540B2, “Pyrido[3,2-d]pyrimidine PI3K delta inhibitor compounds and methods of use” (Genetech, Inc., priority 2010, dated 2013).

pIC50: −log10 of the molar value.

In assay [1] the test system is production of CD69 by B lymphocytes in human whole blood activated with anti-human IgM. Briefly: CD69 Whole Blood Assay. The assay is classed as cell-based. The following applies: Lymphocyte, anti-IgM stimulated, CD69 positive of CD20 positive cells, 20 hours. On the procedure:
Human blood is obtained from healthy volunteers, with the following restrictions: 1 week drug-free, non-smokers.
Human whole blood—HWB (100 μl) is added to each well. After mixing the plates are incubated at 37° C., 5% CO2, 100% humidity for 30 minutes. Goat F(ab′)2 anti-human IgM (10 μl of a 500 μg/ml solution, 50 μg/ml final) is added to each well (except the no-stimulus wells) with mixing and the plates are incubated for an additional 20 hours. […] Include induced control, unstained and single stains for compensation adjustments and initial voltage settings. […] Results are initially analyzed by FACS analysis software (Flow Jo).

A further assay addresses T1, p110 delta (Homo sapiens, UniProt O00329).
T1 construct: purchased Upstate Group, Millipore; Dundee, UK
Briefly: PI3K Isoform Inhibition Assay, p110 delta. Conditions: PI3K isoform inhibition assay of Example 901. Format: biochemical. As for the experimental part:
(§1) PI3K enzymatic activity was assayed by measuring the amount of product phosphatidylinositol […] (PIP3) formed from substrate 4,5 phosphatidylinositol 4,5-phosphate (PIP2) using a fluorescence polarization displacement assay. The decrease in fluorescence polarization of a fluorescent PIP3 probe is measured as it is displaced from a PIP3-binding protein GRP-1 detector by PI3K-catalyzed product. […] The kinase reactions were initiated by the addition of 40 ng/mL p110α/p85α, 300 ng/mL p110β/p85α, 40 ng/mL p110γ, or 40 ng/mL […] (Upstate Group, Millipore; Dundee, UK), and 10 μM PIP2 (Echelon Biosciences) to the wells. […] After 60 minutes of incubation at room temperature to allow equilibration of labeled and unlabeled PIP3 binding, the parallel and perpendicular components of the fluorescence emissions from each sample were measured at an excitation wavelength of 530 nm and an emission wavelength of 590 nm using an Envision fluorescent plate reader with a rhodamine filter (PerkinElmer Life and Analytical Sciences; Wellesley, Mass.). The assay is capable of detecting 0.1-2.0 μM PIP3 product. The IC50 values were obtained by fitting the dose-dependent inhibition data to a 4-parameter equation using Assay Explorer software (MDL, San Ramon, Calif.).
(§2) The Formula I compound was serially diluted in 100% DMSO. The kinase reaction was incubated for 1 h at room temperature, and the reaction was terminated by the addition of PBS. IC50 values were subsequently determined using sigmoidal dose-response curve fit (variable slope).
The four Class I PI 3-kinases are cloned into baculovirus vectors as follows: […]

The target of a further assay is T2, p110 alpha (Homo sapiens, UniProt P42336).
T2 construct: purchased Upstate Group, Millipore; Dundee, UK
T2 sequence (P42336 whole entry): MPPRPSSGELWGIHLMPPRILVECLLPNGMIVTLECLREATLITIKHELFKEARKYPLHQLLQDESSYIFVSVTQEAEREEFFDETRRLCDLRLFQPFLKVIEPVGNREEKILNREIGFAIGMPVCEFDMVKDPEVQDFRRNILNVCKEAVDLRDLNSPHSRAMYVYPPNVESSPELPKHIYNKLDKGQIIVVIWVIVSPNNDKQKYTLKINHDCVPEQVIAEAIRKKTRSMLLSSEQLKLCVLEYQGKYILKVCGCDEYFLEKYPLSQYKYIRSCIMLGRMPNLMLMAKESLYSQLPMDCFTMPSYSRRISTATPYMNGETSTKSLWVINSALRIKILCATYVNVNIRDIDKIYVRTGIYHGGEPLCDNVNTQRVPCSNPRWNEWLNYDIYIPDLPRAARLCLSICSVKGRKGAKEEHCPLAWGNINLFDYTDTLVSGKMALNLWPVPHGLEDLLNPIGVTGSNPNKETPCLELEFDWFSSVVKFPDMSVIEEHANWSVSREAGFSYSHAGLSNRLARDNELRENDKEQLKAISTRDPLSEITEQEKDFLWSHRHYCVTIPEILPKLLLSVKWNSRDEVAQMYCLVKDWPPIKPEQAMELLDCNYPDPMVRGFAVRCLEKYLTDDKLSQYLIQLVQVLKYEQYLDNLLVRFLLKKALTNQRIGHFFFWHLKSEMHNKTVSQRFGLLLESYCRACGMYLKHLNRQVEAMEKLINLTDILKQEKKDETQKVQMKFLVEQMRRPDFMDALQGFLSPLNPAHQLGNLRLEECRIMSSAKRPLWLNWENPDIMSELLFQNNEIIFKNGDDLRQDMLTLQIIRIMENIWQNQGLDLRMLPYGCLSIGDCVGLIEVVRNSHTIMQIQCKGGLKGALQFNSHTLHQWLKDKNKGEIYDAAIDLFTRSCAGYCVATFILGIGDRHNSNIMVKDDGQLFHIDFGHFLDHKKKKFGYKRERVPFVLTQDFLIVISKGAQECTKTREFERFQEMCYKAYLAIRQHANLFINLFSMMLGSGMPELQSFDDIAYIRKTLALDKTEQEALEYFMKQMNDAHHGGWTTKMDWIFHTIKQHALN
T2 sequence (P27986 whole entry partner): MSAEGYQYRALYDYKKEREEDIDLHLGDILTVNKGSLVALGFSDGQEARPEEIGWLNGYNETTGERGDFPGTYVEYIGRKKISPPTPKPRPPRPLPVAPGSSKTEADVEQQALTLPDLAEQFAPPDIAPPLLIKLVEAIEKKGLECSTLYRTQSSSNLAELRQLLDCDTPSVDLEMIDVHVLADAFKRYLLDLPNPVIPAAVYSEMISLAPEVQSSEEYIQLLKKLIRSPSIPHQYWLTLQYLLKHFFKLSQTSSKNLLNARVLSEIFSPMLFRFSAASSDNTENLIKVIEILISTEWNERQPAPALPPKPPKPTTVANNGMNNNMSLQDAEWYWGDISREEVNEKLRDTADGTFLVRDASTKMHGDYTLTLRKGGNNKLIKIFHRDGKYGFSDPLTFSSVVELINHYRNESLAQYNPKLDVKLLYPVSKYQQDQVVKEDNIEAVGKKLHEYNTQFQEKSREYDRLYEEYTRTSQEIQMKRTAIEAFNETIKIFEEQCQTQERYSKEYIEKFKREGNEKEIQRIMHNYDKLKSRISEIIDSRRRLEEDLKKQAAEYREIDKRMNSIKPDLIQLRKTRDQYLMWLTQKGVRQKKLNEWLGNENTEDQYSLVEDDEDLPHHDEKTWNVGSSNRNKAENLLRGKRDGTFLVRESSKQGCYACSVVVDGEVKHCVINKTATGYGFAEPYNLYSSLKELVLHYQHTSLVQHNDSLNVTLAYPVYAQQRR
Briefly: PI3K Isoform Inhibition Assay, p110 alpha (delta/alpha selectivity). The following applies: ratio of biochemical IC50 values. On the procedure:
as §1, §2
The same protocol may be used to establish IC50 values for p110α (alpha) PI3K binding. […]

T1 sequence (O00329 whole entry): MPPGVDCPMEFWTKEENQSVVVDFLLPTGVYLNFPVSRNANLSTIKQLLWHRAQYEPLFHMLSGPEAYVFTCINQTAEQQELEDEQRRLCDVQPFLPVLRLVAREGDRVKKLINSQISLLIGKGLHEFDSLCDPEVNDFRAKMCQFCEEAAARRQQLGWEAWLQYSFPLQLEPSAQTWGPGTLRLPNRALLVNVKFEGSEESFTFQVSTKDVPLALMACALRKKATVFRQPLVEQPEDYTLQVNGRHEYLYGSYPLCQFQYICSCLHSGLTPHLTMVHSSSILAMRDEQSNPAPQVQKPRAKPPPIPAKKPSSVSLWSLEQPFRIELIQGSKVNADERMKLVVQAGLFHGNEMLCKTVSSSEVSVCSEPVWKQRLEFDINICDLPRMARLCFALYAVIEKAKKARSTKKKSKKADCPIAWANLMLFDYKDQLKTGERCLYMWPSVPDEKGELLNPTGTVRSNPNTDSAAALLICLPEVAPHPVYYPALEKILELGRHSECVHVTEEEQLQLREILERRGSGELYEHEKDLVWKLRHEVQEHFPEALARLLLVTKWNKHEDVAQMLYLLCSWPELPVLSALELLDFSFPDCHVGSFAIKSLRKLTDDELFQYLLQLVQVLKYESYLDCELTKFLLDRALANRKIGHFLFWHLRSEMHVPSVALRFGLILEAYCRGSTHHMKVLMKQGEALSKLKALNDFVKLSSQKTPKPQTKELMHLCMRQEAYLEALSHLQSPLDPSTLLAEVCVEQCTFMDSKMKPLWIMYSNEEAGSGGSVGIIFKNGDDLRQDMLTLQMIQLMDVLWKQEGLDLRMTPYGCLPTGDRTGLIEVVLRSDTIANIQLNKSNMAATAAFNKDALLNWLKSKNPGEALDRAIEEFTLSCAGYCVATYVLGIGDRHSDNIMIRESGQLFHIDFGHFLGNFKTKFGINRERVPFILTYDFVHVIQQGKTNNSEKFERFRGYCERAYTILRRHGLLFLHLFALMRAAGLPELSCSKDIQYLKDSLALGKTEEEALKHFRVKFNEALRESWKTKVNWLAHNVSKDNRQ
T1 sequence (P27986 whole entry partner): as the sequence (P27986 whole entry partner) above

Broadly, the pIC50 is the IC50 on a negative log10 scale, so that one unit is a factor of ten. A lower pIC50 goes with a large IC50. Take `CC(C)c1nc2ccccc2n1-c1nc(N2CCOCC2)c2nc(CN3CCC(C(C)(C)O)CC3)ccc2n1` [Compound 112, 2-(1-((2-(2-isopropyl-1H-benzo[d]imidazol-1-yl)-4-morpholinopyrido[3,2-d]pyrimidin-6-yl)methyl)piperidin-4-yl)propan-2-ol]: the negative-log IC50 (pIC50) in assay [1] was 7.08; against p110 delta, 8.27. For the same molecule, the “IC50 p110 alpha/IC50 p110 delta” value at p110 alpha was 44.
For `CO[C@@H](C)c1nc2ccccc2n1-c1nc(N2CCOCC2)c2nc(CN3CCC(C(C)(C)O)CC3)ccc2n1` [Compound 114, (S)-2-(1-((2-(2-(1-methoxyethyl)-1H-benzo[d]imidazol-1-yl)-4-morpholinopyrido[3,2-d]pyrimidin-6-yl)methyl)piperidin-4-yl)propan-2-ol], the pIC50 in assay [1] was 7.92; against p110 delta, 8.75. Further, the “IC50 p110 alpha/IC50 p110 delta” value at p110 alpha was 53.
Molecule `O=C1CN(C2CN(Cc3ccc4nc(-c5c(F)ccc6[nH]ccc56)nc(N5CCOCC5)c4n3)C2)CCN1` [Compound 127, 4-(1-((2-(5-fluoro-1H-indol-4-yl)-4-morpholinopyrido[3,2-d]pyrimidin-6-yl)methyl)azetidin-3-yl)piperazin-2-one] gave a pIC50 at p110 delta of 8.76. Also, the “IC50 p110 alpha/IC50 p110 delta” value at p110 alpha is recorded as 141.
On the same counts, the results for `CC(C)(O)C1CCN(Cc2ccc3nc(-n4ccc5ccccc54)nc(N4CCOCC4)c3n2)CC1` [Compound 128, 2-(1-((2-(1H-indol-1-yl)-4-morpholinopyrido[3,2-d]pyrimidin-6-yl)methyl)piperidin-4-yl)propan-2-ol] are 7.09 and 26.
In turn, `O=S1(=O)CCN(C2CN(Cc3ccc4nc(-c5c(F)ccc6[nH]ccc56)nc(N5CCOCC5)c4n3)C2)CC1` [Compound 129, 4-(2-(5-fluoro-1H-indol-4-yl)-6-((3-(1,1-dioxo)thiomorpholinoazetidin-1-yl)methyl)pyrido[3,2-d]pyrimidin-4-yl)morpholine] gave a pIC50 against p110 delta of 9.07. For the same molecule, at p110 alpha, the “IC50 p110 alpha/IC50 p110 delta” value came to 440.
`Fc1ccc2[nH]ccc2c1-c1nc(N2CCOCC2)c2nc(CN3CCC(C4COC4)CC3)ccc2n1` [Compound 130, 4-(2-(5-fluoro-1H-indol-4-yl)-6-((4-(oxetan-3-yl)piperidin-1-yl)methyl)pyrido[3,2-d]pyrimidin-4-yl)morpholine] had a pIC50 against p110 delta of 8.51. Further, the “IC50 p110 alpha/IC50 p110 delta” value at p110 alpha was 352.
`CCc1nc2ccccc2n1-c1nc(N2CCOCC2)c2nc(CN3CC(N4CCOCC4)C3)ccc2n1` [Compound 131, 4-(1-((2-(2-ethyl-1H-benzo[d]imidazol-1-yl)-4-morpholinopyrido[3,2-d]pyrimidin-6-yl)methyl)azetidin-3-yl)morpholine] had a pIC50 on p110 delta of 8.65. Besides, the “IC50 p110 alpha/IC50 p110 delta” value on p110 alpha is recorded as 36.
On p110 delta, `Cc1cc(-c2nc(N3CCOCC3)c3nc(CN4CCC(C(C)(C)O)CC4)ccc3n2)cnc1N` [Compound 132, 2-(1-((2-(6-amino-5-methylpyridin-3-yl)-4-morpholinopyrido[3,2-d]pyrimidin-6-yl)methyl)piperidin-4-yl)propan-2-ol] had a pIC50 of 7.65. The “IC50 p110 alpha/IC50 p110 delta” value at p110 alpha is reported as 10.
Molecule `CC(C)(O)C1CCN(Cc2ccc3nc(-c4c[nH]c5ccccc45)nc(N4CCOCC4)c3n2)CC1` [Compound 133, 2-(1-((2-(1H-indol-3-yl)-4-morpholinopyrido[3,2-d]pyrimidin-6-yl)methyl)piperidin-4-yl)propan-2-ol] gave a pIC50 on p110 delta of 7.62. Besides, on p110 alpha, the “IC50 p110 alpha/IC50 p110 delta” value is reported as 22.
On the same counts, the results for `CCc1nc2ccccc2n1-c1nc(N2CCOCC2)c2nc(CN3CC(N4CCNC(=O)C4)C3)ccc2n1` [Compound 134, 4-(1-((2-(2-ethyl-1H-benzo[d]imidazol-1-yl)-4-morpholinopyrido[3,2-d]pyrimidin-6-yl)methyl)azetidin-3-yl)piperazin-2-one] are 8.45 and 10.9.
On to `Cc1cc2ccccc2n1-c1nc(N2CCOCC2)c2nc(CN3CCC(C(C)(C)O)CC3)ccc2n1` [Compound 135, 2-(1-((2-(2-methyl-1H-indol-1-yl)-4-morpholinopyrido[3,2-d]pyrimidin-6-yl)methyl)piperidin-4-yl)propan-2-ol], for which, on p110 delta, the pIC50 was 7.59. Further, the “IC50 p110 alpha/IC50 p110 delta” value at p110 alpha is 82.
On to `CC(C)n1ncnc1-c1ccc2nc(-c3c(F)ccc4[nH]ccc34)nc(N3CCOCC3)c2n1` [Compound 141, 4-(2-(5-fluoro-1H-indol-4-yl)-6-(1-isopropyl-1H-1,2,4-triazol-5-yl)pyrido[3,2-d]pyrimidin-4-yl)morpholine], for which, on p110 delta, the pIC50 was 7.20. Besides, the “IC50 p110 alpha/IC50 p110 delta” value at p110 alpha came to 9.4.
The molecule `CC(C)(O)CNCc1ccc2nc(-c3c(F)ccc4[nH]ccc34)nc(N3CCOCC3)c2n1` [Compound 143, 1-((2-(5-fluoro-1H-indol-4-yl)-4-morpholinopyrido[3,2-d]pyrimidin-6-yl)methylamino)-2-methylpropan-2-ol] gave a pIC50 against p110 delta of 7.44. For the same molecule, the “IC50 p110 alpha/IC50 p110 delta” value at p110 alpha is given as 58.
`CC(C)(O)C1CCN(Cc2ccc3nc(-n4c(C(F)(F)F)nc5ccccc54)nc(N4CCOCC4)c3n2)CC1` [Compound 156, 2-(1-((4-morpholino-2-(2-(trifluoromethyl)-1H-benzo[d]imidazol-1-yl)pyrido[3,2-d]pyrimidin-6-yl)methyl)piperidin-4-yl)propan-2-ol] showed a negative-log IC50 (pIC50) at p110 delta of 8.54. The “IC50 p110 alpha/IC50 p110 delta” value at p110 alpha was 42.
As for `Fc1ccc2[nH]ccc2c1-c1ccc2nc(N3CCOCC3)nc(N3CCOCC3)c2n1` [Compound 159, 4,4′-(6-(5-fluoro-1H-indol-4-yl)pyrido[3,2-d]pyrimidine-2,4-diyl)dimorpholine], the pIC50 against p110 delta is 6.06. The “IC50 p110 alpha/IC50 p110 delta” value on p110 alpha is on record as 1.4.
The molecule `CNc1ncccc1-c1nc(N2CCOCC2)c2nc(CN3CCC(C(C)(C)O)CC3)ccc2n1` [Compound 160, 2-(1-((2-(2-(methylamino)pyridin-3-yl)-4-morpholinopyrido[3,2-d]pyrimidin-6-yl)methyl)piperidin-4-yl)propan-2-ol] had a pIC50 against p110 delta of 7.01. Moreover, the “IC50 p110 alpha/IC50 p110 delta” value at p110 alpha is given as 21.
On the same counts, the results for `CC(C)(O)C1CCN(Cc2ccc3nc(-c4cccc5nccn45)nc(N4CCOCC4)c3n2)CC1` [Compound 161, 2-(1-((2-(imidazo[1,2-a]pyridin-5-yl)-4-morpholinopyrido[3,2-d]pyrimidin-6-yl)methyl)piperidin-4-yl)propan-2-ol] are 6.93 and 17.8.
On the same counts, the results for `CC1(COc2ccc3nc(-c4cnc(N)nc4)nc(N4CCOCC4)c3n2)COC1` [Compound 188, 5-(6-((3-methyloxetan-3-yl)methoxy)-4-morpholinopyrido[3,2-d]pyrimidin-2-yl)pyrimidin-2-amine] are 8.06 and 0.18.
The molecule `Cc1cnc2c(N3CCOCC3)nc(-c3cnc(N)nc3)nc2c1` [Compound 197, 5-(7-methyl-4-morpholinopyrido[3,2-d]pyrimidin-2-yl)pyrimidin-2-amine] had a pIC50 at p110 delta of 8.24. The “IC50 p110 alpha/IC50 p110 delta” value on p110 alpha came out at 0.20.
For the molecule `Nc1ncc(-c2nc(N3CCOCC3)c3ncc(C4CC4)cc3n2)cn1` [Compound 198, 5-(7-cyclopropyl-4-morpholinopyrido[3,2-d]pyrimidin-2-yl)pyrimidin-2-amine], the pIC50 against p110 delta is 8.41. The “IC50 p110 alpha/IC50 p110 delta” value on p110 alpha is on record as 0.27.
On p110 delta, `COC1CN(c2cnc3c(N4CCOCC4)nc(N4CC(OC)C4)nc3c2)C1` [Compound 199, 4-(2,7-bis(3-methoxyazetidin-1-yl)pyrido[3,2-d]pyrimidin-4-yl)morpholine] gave a pIC50 of 6.14. At p110 alpha, the “IC50 p110 alpha/IC50 p110 delta” value is on record as 0.95.
In the case of `COC1CN(c2cnc3c(N4CCOCC4)nc(-c4cnc(N)nc4)nc3c2)C1` [Compound 200, 5-(7-(3-methoxyazetidin-1-yl)-4-morpholinopyrido[3,2-d]pyrimidin-2-yl)pyrimidin-2-amine], the pIC50 on p110 delta is 6.15. The “IC50 p110 alpha/IC50 p110 delta” value on p110 alpha was 0.97.
`CC(C)Oc1cnc2c(N3CCOCC3)nc(-c3cnc(N)nc3)nc2c1` [Compound 201, 5-(7-isopropoxy-4-morpholinopyrido[3,2-d]pyrimidin-2-yl)pyrimidin-2-amine] showed a pIC50 against p110 delta of 8.31. Besides, at p110 alpha, the “IC50 p110 alpha/IC50 p110 delta” value is given as 0.34.
